This is an account of results in article PMC5218480 (PLoS ONE, 2017).

In this assay the test system is MV-4-11 cells. Nature of the assay: Gene expression microarray analysis (Affymetrix PrimeView) and GSEA. It counts as cell-based, human. Set-up: RFU PODN (11730768_x_at) / Fold change /veh PODN (11730768_x_at) / RFU LINC00158 (11744669_a_at) / Fold change /veh LINC00158 (11744669_a_at) / RFU DUSP10 (11751237_a_at) / Fold change /veh DUSP10 (11751237_a_at) / RFU ID3 (11757404_x_at) / Fold change /veh ID3 (11757404_x_at) / RFU PLEKHG5 (11737974_s_at) / Fold change /veh PLEKHG5 (11737974_s_at) / RFU LRRC4B (11730491_at) / Fold change /veh LRRC4B (11730491_at) / RFU GIMAP4 (11747438_a_at) / Fold change /veh GIMAP4 (11747438_a_at) / RFU KRT8 (11758183_x_at) / Fold change /veh KRT8 (11758183_x_at) / RFU CNN1 (11734310_a_at) / Fold change /veh CNN1 (11734310_a_at) / RFU VPS37D (11726825_at) / Fold change /veh VPS37D (11726825_at) / RFU C10orf10 (11716522_x_at) / Fold change /veh C10orf10 (11716522_x_at) / RFU KIR2DL2 /// KIR2DL4 /// KIR2DL5A /// KIR2DL5B /// KIR2DS1 /// KIR2DS2 /// KIR2DS3 /// KIR2DS4 /// KIR3DL3 /// KIR3DL3 /// KIR3DS1 (11738374_at) / Fold change /veh KIR2DL2 /// KIR2DL4 /// KIR2DL5A /// KIR2DL5B /// KIR2DS1 /// KIR2DS2 /// KIR2DS3 /// KIR2DS4 /// KIR3DL3 /// KIR3DL3 /// KIR3DS1 (11738374_at) / RFU C1QL1 (11718748_at) / Fold change /veh C1QL1 (11718748_at) / RFU TMPRSS4 (11747572_a_at) / Fold change /veh TMPRSS4 (11747572_a_at) / RFU HAMP (11756126_x_at) / Fold change /veh HAMP (11756126_x_at) / RFU RNFT2 (11725882_a_at) / Fold change /veh RNFT2 (11725882_a_at) / RFU NR4A2 (11747474_a_at) / Fold change /veh NR4A2 (11747474_a_at) / RFU ABCC12 (11746883_a_at) / Fold change /veh ABCC12 (11746883_a_at) / RFU TMEM136 (11760407_x_at) / Fold change /veh TMEM136 (11760407_x_at) / RFU CLDN22 /// WWC2 (11732394_at) / Fold change /veh CLDN22 /// WWC2 (11732394_at) / RFU HLA-DPB1 (11760878_x_at) / Fold change /veh HLA-DPB1 (11760878_x_at) / RFU SPINT1 (11716480_a_at) / Fold change /veh SPINT1 (11716480_a_at) / RFU GAP43 (11754022_s_at) / Fold change /veh GAP43 (11754022_s_at) / RFU A4GNT (11735810_at) / Fold change /veh A4GNT (11735810_at) / RFU PRB3 (11715151_x_at) / Fold change /veh PRB3 (11715151_x_at) / RFU TUBB4B (11761932_at) / Fold change /veh TUBB4B (11761932_at) / RFU CAPN14 (11732068_a_at) / Fold change /veh CAPN14 (11732068_a_at) / RFU TMCC2 (11721928_a_at) / Fold change /veh TMCC2 (11721928_a_at) / RFU IRGQ (11745062_a_at) / Fold change /veh IRGQ (11745062_a_at) / RFU FAM174B (11720279_a_at) / Fold change /veh FAM174B (11720279_a_at) / RFU TMPRSS4 (11748680_a_at) / Fold change /veh TMPRSS4 (11748680_a_at) / RFU FAM212B (11763350_a_at) / Fold change /veh FAM212B (11763350_a_at) / RFU PLEKHG5 (11743358_a_at) / Fold change /veh PLEKHG5 (11743358_a_at) / RFU ZSCAN30 (11745921_a_at) / Fold change /veh ZSCAN30 (11745921_a_at) / RFU CMKLR1 (11741424_a_at) / Fold change /veh CMKLR1 (11741424_a_at) / RFU LOC101060620 /// MAPK8IP1 (11723275_at) / Fold change /veh LOC101060620 /// MAPK8IP1 (11723275_at) / RFU SPTSSB (11747773_x_at) / Fold change /veh SPTSSB (11747773_x_at) / RFU PRSS12 (11739890_at) / Fold change /veh PRSS12 (11739890_at) / RFU BIN1 (11741810_x_at) / Fold change /veh BIN1 (11741810_x_at) / RFU WNT11 (11732464_a_at) / Fold change /veh WNT11 (11732464_a_at) / RFU C10orf10 (11716521_a_at) / Fold change /veh C10orf10 (11716521_a_at) / RFU C5orf56 (11738089_at) / Fold change /veh C5orf56 (11738089_at) / RFU CYB561 (11721691_x_at) / Fold change /veh CYB561 (11721691_x_at) / RFU ANKRD19P (11752326_a_at) / Fold change /veh ANKRD19P (11752326_a_at) / RFU OR2T12 /// OR2T33 /// OR2T8 (11738714_s_at) / Fold change /veh OR2T12 /// OR2T33 /// OR2T8 (11738714_s_at) / RFU VCAN (11748164_a_at) / Fold change /veh VCAN (11748164_a_at) / RFU JSRP1 (11732532_at) / Fold change /veh JSRP1 (11732532_at) / RFU KRTAP10-11 (11738290_x_at) / Fold change /veh KRTAP10-11 (11738290_x_at) / RFU MYO3A (11730013_a_at) / Fold change /veh MYO3A (11730013_a_at) / RFU EBF3 (11725865_a_at) / Fold change /veh EBF3 (11725865_a_at) / RFU CAMK2N1 (11719241_x_at) / Fold change /veh CAMK2N1 (11719241_x_at) / RFU C5orf56 (11738088_a_at) / Fold change /veh C5orf56 (11738088_a_at) / RFU OLFML3 (11715873_a_at) / Fold change /veh OLFML3 (11715873_a_at) / RFU LOC100653217 /// NTM (11731650_a_at) / Fold change /veh LOC100653217 /// NTM (11731650_a_at) / RFU MAPK11 (11762145_a_at) / Fold change /veh MAPK11 (11762145_a_at) / RFU FIZ1 (11724087_x_at) / Fold change /veh FIZ1 (11724087_x_at) / RFU OASL (11726364_x_at) / Fold change /veh OASL (11726364_x_at) / RFU SOX15 (11748057_x_at) / Fold change /veh SOX15 (11748057_x_at) / RFU CD79A (11719716_a_at) / Fold change /veh CD79A (11719716_a_at) / RFU HIST1H1D (11736915_at) / Fold change /veh HIST1H1D (11736915_at) / RFU CASKIN2 (11723855_a_at) / Fold change /veh CASKIN2 (11723855_a_at) / RFU LOC730098 (11760151_x_at) / Fold change /veh LOC730098 (11760151_x_at) / RFU OR4N2 (11742367_at) / Fold change /veh OR4N2 (11742367_at) / RFU PRRT2 (11749266_a_at) / Fold change /veh PRRT2 (11749266_a_at) / RFU SNX32 (11753110_a_at) / Fold change /veh SNX32 (11753110_a_at) / RFU CDHR5 (11726645_a_at) / Fold change /veh CDHR5 (11726645_a_at) / RFU RCAN1 (11760418_a_at) / Fold change /veh RCAN1 (11760418_a_at) / RFU FAM167A (11723789_a_at) / Fold change /veh FAM167A (11723789_a_at) / RFU FAM26E (11764081_at) / Fold change /veh FAM26E (11764081_at) / RFU ISYNA1 (11749810_s_at) / Fold change /veh ISYNA1 (11749810_s_at) / RFU ACY1 (11761880_at) / Fold change /veh ACY1 (11761880_at) / RFU 11764098_at / Fold change /veh 11764098_at / RFU SAMD14 (11745864_x_at) / Fold change /veh SAMD14 (11745864_x_at) / RFU NPB (11741838_a_at) / Fold change /veh NPB (11741838_a_at) / RFU TMPRSS6 (11731388_a_at) / Fold change /veh TMPRSS6 (11731388_a_at) / RFU KRTAP10-2 (11738614_at) / Fold change /veh KRTAP10-2 (11738614_at) / RFU ARHGAP8 /// PRR5-ARHGAP8 (11727945_x_at) / Fold change /veh ARHGAP8 /// PRR5-ARHGAP8 (11727945_x_at) / RFU KRTAP5-7 /// NADSYN1 (11734609_at) / Fold change /veh KRTAP5-7 /// NADSYN1 (11734609_at) / RFU RASL12 (11751679_a_at) / Fold change /veh RASL12 (11751679_a_at) / RFU CDKN2B (11736163_a_at) / Fold change /veh CDKN2B (11736163_a_at) / RFU PRF1 (11729649_at) / Fold change /veh PRF1 (11729649_at) / RFU, ZNF638 /// ZNF638-IT1 / Fold change vs veh, ZNF638 /// ZNF638-IT1 / RFU, PANK3 / Fold change vs veh, PANK3 / RFU, SH3YL1 / Fold change vs veh, SH3YL1 / RFU, ZEB2 / Fold change vs veh, ZEB2 / RFU, NRIP1 / Fold change vs veh, NRIP1 / RFU, PTTG1IP / Fold change vs veh, PTTG1IP / RFU, CAPN2 / Fold change vs veh, CAPN2 / RFU, MED14 / Fold change vs veh, MED14 / RFU, SNORA58 / Fold change vs veh, SNORA58 / RFU, C1orf63 / Fold change vs veh, C1orf63 / RFU, LRRFIP1 / Fold change vs veh, LRRFIP1 / RFU, NDUFAF7 / Fold change vs veh, NDUFAF7 / RFU, SLC12A2 / Fold change vs veh, SLC12A2 / RFU, IBTK / Fold change vs veh, IBTK / RFU, ESF1 / Fold change vs veh, ESF1 / Fold change vs veh, TMEM50B / RFU, TAOK1 / Fold change vs veh, TAOK1 / RFU, ACBD3 / Fold change vs veh, ACBD3 / RFU, TMA16 / Fold change vs veh, TMA16 / RFU, RWDD3 / Fold change vs veh, RWDD3 / RFU, BCAT1 / Fold change vs veh, BCAT1 / RFU, EDEM3 / Fold change vs veh, EDEM3 / RFU, TMEM33 / Fold change vs veh, TMEM33 / RFU, WDR75 / Fold change vs veh, WDR75 / RFU, AHCTF1 / Fold change vs veh, AHCTF1 / RFU, TFRC / Fold change vs veh, TFRC / RFU, ZDHHC17 / Fold change vs veh, ZDHHC17 / RFU, NOM1 / Fold change vs veh, NOM1 / RFU, ARL8B / Fold change vs veh, ARL8B / RFU, ZBTB11 / Fold change vs veh, ZBTB11 / RFU, TAMM41 / Fold change vs veh, TAMM41 / RFU, KIAA1704 /// LOC100996395 / Fold change vs veh, KIAA1704 /// LOC100996395 / RFU, ING1 / Fold change vs veh, ING1 / RFU, TRMT61B / Fold change vs veh, TRMT61B / RFU, FUBP3 / Fold change vs veh, FUBP3 / RFU, TP53 / Fold change vs veh, TP53 / RFU, TNKS2 / Fold change vs veh, TNKS2 / RFU, ZFP14 / Fold change vs veh, ZFP14 / RFU, ACTR2 / Fold change vs veh, ACTR2 / RFU, PPP3R1 / Fold change vs veh, PPP3R1 / RFU, PIK3R1 / Fold change vs veh, PIK3R1 / RFU, HNRNPA1 / Fold change vs veh, HNRNPA1 / RFU, RNF170 / Fold change vs veh, RNF170 / RFU, ZNF28 / Fold change vs veh, ZNF28 / RFU, RNGTT / Fold change vs veh, RNGTT / RFU, OGT / Fold change vs veh, OGT / RFU, BRD1 / Fold change vs veh, BRD1 / RFU, MARS / Fold change vs veh, MARS / RFU, ZNF655 / Fold change vs veh, ZNF655 / RFU, FAHD1 / Fold change vs veh, FAHD1 / RFU, BDP1 / Fold change vs veh, BDP1 / RFU, LRRCC1 / Fold change vs veh, LRRCC1 / RFU, ARID1A / Fold change vs veh, ARID1A / RFU, ZNF146 / Fold change vs veh, ZNF146 / RFU, ZNF330 / Fold change vs veh, ZNF330 / RFU, GPN3 / Fold change vs veh, GPN3 / RFU, C9orf123 / Fold change vs veh, C9orf123 / RFU, N4BP2L2 / Fold change vs veh, N4BP2L2 / RFU, ARFIP1 / Fold change vs veh, ARFIP1 / RFU, FAM179B / Fold change vs veh, FAM179B / RFU, BCL10 / Fold change vs veh, BCL10 / RFU, UHRF1BP1L / Fold change vs veh, UHRF1BP1L / RFU, BET1 / Fold change vs veh, BET1 / RFU, CNOT2 / Fold change vs veh, CNOT2 / RFU, ZNF268 / Fold change vs veh, ZNF268 / Fold change vs veh, ZNF507 / RFU, DGCR2 / Fold change vs veh, DGCR2 / RFU, WDSUB1 / Fold change vs veh, WDSUB1 / Fold change vs veh, HSP90B1 /// MIR3652 / RFU, ADSS / Fold change vs veh, ADSS / RFU, GK / Fold change vs veh, GK / RFU, ZNF148 / Fold change vs veh, ZNF148 / RFU, TAF9 / Fold change vs veh, TAF9 / RFU, SLC1A5 / Fold change vs veh, SLC1A5 / RFU, SLMO2 / Fold change vs veh, SLMO2 / RFU, ABCC4 / Fold change vs veh, ABCC4 / RFU, LOC101060439 /// RAP1B / Fold change vs veh, LOC101060439 /// RAP1B / RFU, RFX7 / Fold change vs veh, RFX7 / RFU, GTPBP10 / Fold change vs veh, GTPBP10 / RFU, CNEP1R1 / Fold change vs veh, CNEP1R1 / RFU, BIVM-ERCC5 /// ERCC5 / Fold change vs veh, BIVM-ERCC5 /// ERCC5 / RFU, ILF3 / Fold change vs veh, ILF3 / RFU 11762660_at / Fold change /veh 11762660_at / RFU VCAN (11757783_s_at) / Fold change /veh VCAN (11757783_s_at) / RFU DDX43 (11728927_at) / Fold change /veh DDX43 (11728927_at) / RFU KRT8 (11758188_x_at) / Fold change /veh KRT8 (11758188_x_at) / RFU NKD1 (11759106_at) / Fold change /veh NKD1 (11759106_at) / RFU SRD5A1 (11742802_a_at) / Fold change /veh SRD5A1 (11742802_a_at) / RFU TPSAB1 /// TPSB2 (11721975_s_at) / Fold change /veh TPSAB1 /// TPSB2 (11721975_s_at) / RFU GSTM3 (11746129_a_at) / Fold change /veh GSTM3 (11746129_a_at) / RFU IL23R (11737362_x_at) / Fold change /veh IL23R (11737362_x_at) / RFU TMEM51 (11727254_a_at) / Fold change /veh TMEM51 (11727254_a_at) / RFU PIWIL2 (11732686_x_at) / Fold change /veh PIWIL2 (11732686_x_at) / RFU ORM1 (11744905_x_at) / Fold change /veh ORM1 (11744905_x_at) / RFU CCDC152 (11743942_at) / Fold change /veh CCDC152 (11743942_at) / RFU ECM1 (11717891_a_at) / Fold change /veh ECM1 (11717891_a_at) / RFU IL23R (11748794_a_at) / Fold change /veh IL23R (11748794_a_at) / RFU TNFAIP8L3 (11732012_x_at) / Fold change /veh TNFAIP8L3 (11732012_x_at) / RFU MBOAT4 (11741988_at) / Fold change /veh MBOAT4 (11741988_at) / RFU 11764193_at / Fold change /veh 11764193_at / RFU TMEM53 (11763286_at) / Fold change /veh TMEM53 (11763286_at) / RFU MAGEB2 (11727129_at) / Fold change /veh MAGEB2 (11727129_at) / RFU TMEM200A (11744735_a_at) / Fold change /veh TMEM200A (11744735_a_at) / RFU CCDC152 (11751479_a_at) / Fold change /veh CCDC152 (11751479_a_at) / RFU FAM211A (11726209_a_at) / Fold change /veh FAM211A (11726209_a_at) / RFU RGS16 (11746705_a_at) / Fold change /veh RGS16 (11746705_a_at) / RFU VCAN (11755009_s_at) / Fold change /veh VCAN (11755009_s_at) / RFU RHOB (11743442_s_at) / Fold change /veh RHOB (11743442_s_at) / RFU RGS16 (11720943_a_at) / Fold change /veh RGS16 (11720943_a_at) / RFU RGS16 (11720944_at) / Fold change /veh RGS16 (11720944_at) / RFU, VPS4B / Fold change vs veh, VPS4B / RFU, CREB1 / Fold change vs veh, CREB1 / RFU, DNAJC13 / Fold change vs veh, DNAJC13 / RFU, GNAQ / Fold change vs veh, GNAQ / RFU, CDK5R1 / Fold change vs veh, CDK5R1 / RFU, ZRANB3 / Fold change vs veh, ZRANB3 / RFU, CUL4A / Fold change vs veh, CUL4A / RFU, CCNY / Fold change vs veh, CCNY / RFU, UFL1 / Fold change vs veh, UFL1 / RFU, COG3 / Fold change vs veh, COG3 / RFU, DIAPH2 / Fold change vs veh, DIAPH2 / RFU, SKA2 / Fold change vs veh, SKA2 / RFU, AFF3 / Fold change vs veh, AFF3 / RFU, LMF1 / Fold change vs veh, LMF1 / RFU, IPO11 / Fold change vs veh, IPO11 / RFU, DFFB / Fold change vs veh, DFFB / RFU, FOXP1 / Fold change vs veh, FOXP1 / RFU, CARD8 / Fold change vs veh, CARD8 / RFU, STRN3 / Fold change vs veh, STRN3 / RFU, ADK / Fold change vs veh, ADK / RFU, RASSF2 / Fold change vs veh, RASSF2 / RFU, WIPF1 / Fold change vs veh, WIPF1 / RFU, LARP1B / Fold change vs veh, LARP1B / RFU, RASA1 / Fold change vs veh, RASA1 / RFU, RB1 / Fold change vs veh, RB1 / RFU, PPFIA1 / Fold change vs veh, PPFIA1 / RFU, MAT2A / Fold change vs veh, MAT2A / RFU, CCT5 / Fold change vs veh, CCT5 / RFU, WDR92 / Fold change vs veh, WDR92 / RFU, CUX1 / Fold change vs veh, CUX1 / RFU, TTC7A / Fold change vs veh, TTC7A / RFU, TMEM135 / Fold change vs veh, TMEM135 / RFU, DEPTOR / Fold change vs veh, DEPTOR / RFU, CPM / Fold change vs veh, CPM / RFU, DNAJB6 / Fold change vs veh, DNAJB6 / RFU, CACNA2D3 / Fold change vs veh, CACNA2D3 / RFU, DTX4 / Fold change vs veh, DTX4 / RFU, TFCP2 / Fold change vs veh, TFCP2 / RFU, GMCL1 /// GMCL1P1 / Fold change vs veh, GMCL1 /// GMCL1P1 / RFU, AEBP2 / Fold change vs veh, AEBP2 / RFU, SNHG1 /// SNORD22 /// SNORD25 /// SNORD26 /// SNORD27 /// SNORD28 /// SNORD29 /// SNORD31 / Fold change vs veh, SNHG1 /// SNORD22 /// SNORD25 /// SNORD26 /// SNORD27 /// SNORD28 /// SNORD29 /// SNORD31 / Fold change (Aza/veh), C12orf56 (ProbeSet 11735607_a_at) / Fold change (ACY-1035/veh), C12orf56 (ProbeSet 11735607_a_at) / Fold change (Aza/veh), FGFR1OP (ProbeSet 11751329_s_at) / Fold change (ACY-1035/veh), FGFR1OP (ProbeSet 11751329_s_at) / Fold change (Aza/veh), VPS36 (ProbeSet 11739960_a_at) / Fold change (ACY-1035/veh), VPS36 (ProbeSet 11739960_a_at) / RFU SYPL1 (11715823_x_at) / Fold change /veh SYPL1 (11715823_x_at) / RFU IGFBP7 (11715501_s_at) / Fold change /veh IGFBP7 (11715501_s_at) / RFU REEP3 (11722064_at) / Fold change /veh REEP3 (11722064_at) / RFU IGLL1 (11728026_x_at) / Fold change /veh IGLL1 (11728026_x_at): dose or concentration left out as unconfirmed. The note with it: MV-4-11 cells, 48 hours.

The structures appear in SMILES notation.

Turning to `Nc1ccc(-c2cccs2)cc1NC(=O)c1ccc2c(c1)cc(C1CC1)n2CCN1CCOCC1` [ACY-1035], the “Fold change /veh SPTSSB (11747773_x_at)” value is given as 0.98.
